Measured values reported in publication PMC10979003, “Development and crystal structures of a potent second-generation dual degrader of BCL-2 and BCL-xL” (Nature Communications, 2024).

What was measured:
BCL-2 = target: T1, BCL-2 (Homo sapiens, UniProt P10415); assay: Immunoblot degradation of BCL-2 in Jurkat cells; type: cell-based; conditions: for DC50: 16 h treatment, immunoblot
T1 construct: endogenous in cells; host or cells: Jurkat (ATCC TIB-152)
Procedure: The data are presented as mean ± s.d. from three replicate cell cultures in a representative experiment for Jurkat cells. h Left, WH244 induces polyubiquitination of WT, K22R BCL-2 and to some extent K17R but not K17/22R BCL-2 in 293T cells. 293T cells were co-transfected as indicated with Flag-BCL−2 WT or mutants and HA-tagged ubiquitin (HA-Ub) plasmids. After 36 h, cells were pretreated with MG132 (10 µM) for 2 h and then treated with or without WH244 (1 μM) for 5 h. The Flag-tagged proteins were immunoprecipitated (IP) and immunoblotted with HA or Flag antibody. Right, The input blot for this assay. Data are a representative of two independent experiments. Source data are provided as Source Data file.
Cells were collected, washed once with ice-cold phosphate-buffered saline, pH 7.2 (PBS, cat. no. 20012027; Thermo Fisher Scientific) and lysed in RIPA lysis buffer (Cat. No. BP-115DG, Boston Bio Products, Ashland, MA, USA) supplemented with protease and phosphatase inhibitor cocktails (Cat. No. PPC1010, Sigma-Aldrich, St. Louis, MO, USA) through sonication. The samples were centrifuged at 15,000 × g for 5 min and the supernatants were transferred into a new tube. The protein concentration in the supernatants was determined using the Pierce BCA protein Assay kit (cat. no. 23225, Thermo Fisher Scientific). The protein concentration was normalized, and the samples were reduced in 4× Laemmli’s SDS-sample buffer (cat. no. BP-110R, Boston Bio Products) and denatured at 95 °C for 5 min. An equal amount of protein samples (20–40 μg per lane) were resolved using precast 4–20% Tris-glycine gels (Mini-PROTEAN TGX, cat. no. 456–1094, Bio-Rad), and resolved proteins were transferred onto 0.2-μm pore size polyvinylidene difluoride (PVDF) blotting membranes (cat. no. LC2002, Thermo Fisher Scientific) using mini trans-blot electrophoretic transfer cell (Bio-Rad). The membranes were blocked with non-fat dry milk (5% wt/vol) in 1×Tris- buffered saline-Tween-20 (TBST) for 1 h at room temperature, and were subsequently probed with primary antibodies at a pre-determined optimal concentration in non-fat dry milk (5% wt/vol in TBST) overnight at 4 °C. The membranes were washed three times (15 min each) in TBST and then incubated with horse radish peroxidase (HRP)-conjugated secondary antibodies for 1 h at room temperature. Following sufficient washing with TBST, the membranes were exposed with ECL Western Blotting Substrate (Bio-Rad), and the signal was detected using the ChemiDoc MP Imaging System (Bio-Rad) and quantified using the ImageJ (v1.53a) software from NIH. Antibodies were purchased from Cell Signaling Technologies (CST) and the dilutions are as follows: BCL-xL (Cat. No. 2762S, 1:1000) and BCL-2 (Cat. No. 2870S, 1:1000). β-actin antibody was purchased from MP Biomedicals (Cat. No. 8691001, 1:20,000).

HeLa cells = assay: DIA proteomics in HeLa cells; type: cell-based, human; conditions: for Off-target effects (two proteomic analyses): TMT (Jurkat) and DIA (HeLa) proteomics
Excerpt: Given the somewhat inconclusive nature of the TMT results, we made additional efforts to characterize the on-target and off-target effects of our BCL-xL and BCL-2 dual PROTACs using a different proteomics analysis technique, i.e. the Data-Independent Acquisition (DIA) proteomics approach. This approach can avoid the limitation of TMT-labeling deficiency for some proteins/peptides. Specifically, we conducted DIA proteomics profiling using HeLa cells because these cells are primarily dependent on MCL-1 for survival and thus resistant to apoptosis after BCL-xL and BCL-2 degradation. To our delight, we were able to identify over 7200 proteins, including both BCL-xL and BCL-2 (Supplementary Fig. 10d), using this method.
Cells were lysed in buffer containing 5% SDS/50 mM triethylammonium bicarbonate (TEAB) in the presence of protease and phosphatase inhibitors (Halt; Thermo Scientific) and nuclease (Pierce™ Universal Nuclease for Cell Lysis; Thermo Scientific). Aliquots corresponding to 100 µg protein (EZQ™ Protein Quantitation Kit; Thermo Scientific) were reduced with tris(2-carboxyethyl)phosphine hydrochloride (TCEP), alkylated in the dark with iodoacetamide and applied to S-Traps (mini; Protifi) for tryptic digestion (sequencing grade; Promega) in 50 mM triethylammonium bicarbonate (TEAB). Peptides were eluted from the S-Traps with 0.2% formic acid in 50% aqueous acetonitrile and quantified using Pierce™ Quantitative Fluorometric Peptide Assay (Thermo Scientific). Data-independent acquisition mass spectrometry (DIA-MS) was conducted on a Thermo Scientific Orbitrap Exploris 480 mass spectrometer. […] A pool was made of the three control (DMSO) samples, and 2-µg peptide aliquots were analyzed using gas-phase fractionation and 4-m/z windows (30k resolution for precursor and product ion scans) to create an empirically-corrected DIA chromatogram library[72] by searching against a Prosit-generated predicted spectral library[73] based on the UniProt_Human_ref 9606_20220216 protein sequence database (20,588 sequences; 11,394,277 residues). […]

T1 sequence (P10415 whole entry): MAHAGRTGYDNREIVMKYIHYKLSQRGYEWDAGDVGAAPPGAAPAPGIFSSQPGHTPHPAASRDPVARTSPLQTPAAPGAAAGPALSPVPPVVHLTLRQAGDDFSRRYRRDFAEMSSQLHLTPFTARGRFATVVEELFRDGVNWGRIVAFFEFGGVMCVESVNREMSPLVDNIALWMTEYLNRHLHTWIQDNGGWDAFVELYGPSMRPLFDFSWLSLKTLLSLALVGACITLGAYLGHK

Structure (SMILES) | DC50 (BCL-2; Jurkat cells) | Off-target effects (two proteomic analyses) (HeLa cells) | Earliest time at which BCL-2 degradation is seen (BCL-2; 0.1 μM WH244, Jurkat cells) | Time to nearly complete degradation of BCL-2 (BCL-2; 0.1 μM WH244, Jurkat cells) | Time for BCL-2 level to recover to pretreatment level after removal of degrader (BCL-2; 0.1 μM WH244 for 16 h, then fresh medium, Jurkat cells) | DC50 fold better than 753b (BCL-2) (BCL-2; Jurkat cells, 16 h) | Degradation of BCL-xL and BCL-2 by DIA proteomics (comparison) (HeLa cells; HeLa cells)
Cc1ncsc1-c1ccc(C(C)NC(=O)C2CC(O)CN2C(=O)C(NC(=O)CCCCCCC(=O)N2CCN(CC3(C)CCC(c4ccc(Cl)cc4)=C(CN4CCN(c5ccc(C(=O)NS(=O)(=O)c6ccc(NC(CCN7CCOCC7)CSc7ccccc7)c(S(=O)(=O)C(F)(F)F)c6)cc5)CC4)C3)CC2)C(C)(C)C)cc1 (stereo not drawn) [753b] | 50 nM | limited off-target effects | – | – | – | – | –
Cc1ncsc1-c1ccc([C@H](C)NC(=O)[C@@H]2C[C@@H](O)CN2C(=O)[C@@H](NC(=O)CN2CCN(CC(=O)N3CCN(C[C@]4(C)CCC(c5ccc(Cl)cc5)=C(CN5CCN(c6ccc(C(=O)NS(=O)(=O)c7ccc(N[C@H](CCN8C[C@@H]9C[C@H]8CO9)CSc8ccccc8)c(S(=O)(=O)C(F)(F)F)c7)cc6)CC5)C4)CC3)CC2)C(C)(C)C)cc1 [WH244] | 7.4 nM | limited off-target effects | 1 h | 6 h | 24 to 48 h | ~6.8 fold | superior efficacy in the degradation of both proteins
